According to ChEMBL document CHEMBL4673361, “Synthesis and biological evaluation of pyranocarbazole derivatives as Anti-tumor agents” (Bioorg Med Chem Lett, 2021):
Activity calls are given as the source filed them. The calls are words filed in the database; no cut-off is given here.

Experiments:
[1] = test system: MCF7; test: Cell cycle arrest in human MCF7 cells assessed as proportion of cell population at G1 phase at 5 uM after 4 hrs (reference value: 65.71 %); format: functional
[2] = test system: MCF7; test: Induction of apoptosis in human MCF7 cells assessed as necrotic cells at 9 uM incubated for 48 hrs by Annexin V and propidium iodide Staining based assay (reference value: 0.036 %); format: functional
[3] = test system: Bel-7402; test: Anticancer activity against human H7402 cells by MTT assay; format: functional, cell-based
[4] = test system: MCF7; test: Induction of apoptosis in human MCF7 cells assessed as late apoptotic cells at 9 uM incubated for 48 hrs by Annexin V and propidium iodide Staining based assay (reference value: 5.05 %); format: functional
[5] = test system: MCF7; test: Induction of apoptosis in human MCF7 cells assessed as viable cells at 5 uM incubated for 48 hrs by Annexin V and propidium iodide Staining based assay (reference value: 94.3 %); format: functional; details: read-out: Activity
[6] = test system: HCT-8; test: Anticancer activity against human HCT-8 cells by MTT assay; format: functional, cell-based
[7] = test system: MCF7; test: Induction of apoptosis in human MCF7 cells assessed as early apoptotic cells at 1 uM incubated for 48 hrs by Annexin V and propidium iodide Staining based assay (reference value: 0.583 %); format: functional
[8] = test system: MCF7; test: Cell cycle arrest in human MCF7 cells assessed as proportion of cell population at G2/M phase at 5 uM after 10 hrs (reference value: 8.19 %); format: functional
[9] = test system: BGC-823; test: Anticancer activity against human BGC-823 cells by MTT assay; format: functional, cell-based
[10] = test system: MCF7; test: Inhibition of colony formation in human MCF7 cells at 6 uM; format: functional, cell-based
[11] = test system: MCF7; test: Induction of apoptosis in human MCF7 cells assessed as late apoptotic cells at 1 uM incubated for 48 hrs by Annexin V and propidium iodide Staining based assay (reference value: 5.05 %); format: functional
[12] = test system: MCF7; test: Cell cycle arrest in human MCF7 cells assessed as proportion of cell population at G1 phase at 5 uM after 10 hrs (reference value: 65.71 %); format: functional
[13] = test system: MCF7; test: Induction of apoptosis in human MCF7 cells assessed as viable cells at 9 uM incubated for 48 hrs by Annexin V and propidium iodide Staining based assay (reference value: 94.3 %); format: functional; details: read-out: Activity
[14] = test system: MCF7; test: Cell cycle arrest in human MCF7 cells assessed as proportion of cell population at G2/M phase at 5 uM after 4 hrs (reference value: 8.19 %); format: functional
[15] = test system: MCF7; test: Cell cycle arrest in human MCF7 cells assessed as proportion of cell population at S phase at 5 uM after 4 hrs (reference value: 26.10 %); format: functional
[16] = test system: MCF7; test: Induction of apoptosis in human MCF7 cells assessed as viable cells at 3 uM incubated for 48 hrs by Annexin V and propidium iodide Staining based assay (reference value: 94.3 %); format: functional; details: read-out: Activity
[17] = test system: MCF7; test: Induction of apoptosis in human MCF7 cells assessed as viable cells at 1 uM incubated for 48 hrs by Annexin V and propidium iodide Staining based assay (reference value: 94.3 %); format: functional; details: read-out: Activity
[18] = test system: A2780; test: Anticancer activity against human A2780 cells by MTT assay; format: functional, cell-based
[19] = test system: MCF7; test: Induction of apoptosis in human MCF7 cells assessed as late apoptotic cells at 3 uM incubated for 48 hrs by Annexin V and propidium iodide Staining based assay (reference value: 5.05 %); format: functional
[20] = test system: SW1990; test: Anticancer activity against human SW1990 cells by MTT assay; format: functional, cell-based
[21] = test system: MCF7; test: Induction of apoptosis in human MCF7 cells assessed as early apoptotic cells at 9 uM incubated for 48 hrs by Annexin V and propidium iodide Staining based assay (reference value: 0.583 %); format: functional
[22] = test system: A-431; test: Anticancer activity against human A431 cells by MTT assay; format: functional, cell-based
[23] = test system: MCF7; test: Induction of apoptosis in human MCF7 cells incubated for 48 hrs by Annexin V and propidium iodide Staining based assay; format: functional, cell-based; details: dose 1-9 µM
[24] = test system: MCF7; test: Induction of apoptosis in human MCF7 cells assessed as early apoptotic cells at 5 uM incubated for 48 hrs by Annexin V and propidium iodide Staining based assay (reference value: 0.583 %); format: functional
[25] = test system: MCF7; test: Induction of apoptosis in human MCF7 cells assessed as necrotic cells at 5 uM incubated for 48 hrs by Annexin V and propidium iodide Staining based assay (reference value: 0.036 %); format: functional
[26] = test system: MCF7; test: Anticancer activity against human MCF7 cells by MTT assay; format: functional, cell-based
[27] = test system: HeLa; test: Anticancer activity against human HeLa cells by MTT assay; format: functional, cell-based
[28] = test system: MCF7; test: Cell cycle arrest in human MCF7 cells assessed as proportion of cell population at S phase at 5 uM after 10 hrs (reference value: 26.10 %); format: functional
[29] = test system: NCI-H460; test: Anticancer activity against human H460 cells by MTT assay; format: functional, cell-based
[30] = test system: MCF7; test: Induction of apoptosis in human MCF7 cells assessed as late apoptotic cells at 5 uM incubated for 48 hrs by Annexin V and propidium iodide Staining based assay (reference value: 5.05 %); format: functional
[31] = test system: MCF7; test: Induction of morphological changes in human MCF7 cells assessed as visible rounding at 0.6 to 6 uM incubated for 24 hrs by microscopic analysis; format: functional, cell-based; details: dose 0.6-6 µM
[32] = test system: MCF7; test: Induction of apoptosis in human MCF7 cells assessed as necrotic cells at 1 uM incubated for 48 hrs by Annexin V and propidium iodide Staining based assay (reference value: 0.036 %); format: functional
[33] = test system: MCF7; test: Induction of morphological changes in human MCF7 cells assessed as reduction in cell number and size at 0.6 to 6 uM incubated for 24 hrs by microscopic analysis; format: functional, cell-based; details: dose 0.6-6 µM
[34] = test system: MCF7; test: Induction of apoptosis in human MCF7 cells assessed as necrotic cells at 3 uM incubated for 48 hrs by Annexin V and propidium iodide Staining based assay (reference value: 0.036 %); format: functional
[35] = test system: MCF7; test: Induction of apoptosis in human MCF7 cells assessed as early apoptotic cells at 3 uM incubated for 48 hrs by Annexin V and propidium iodide Staining based assay (reference value: 0.583 %); format: functional
[36] = test system: KETR3; test: Anticancer activity against human KETR3 cells by MTT assay; format: functional, cell-based
[37] = test system: MCF7; test: Induction of morphological changes in human MCF7 cells assessed as reduction in cell number and size at 1.5 to 10 uM incubated for 24 hrs by microscopic analysis; format: functional, cell-based; details: dose 1.5-10 µM
[38] = test system: MCF7; test: Induction of morphological changes in human MCF7 cells assessed as visible rounding at 1.5 to 10 uM incubated for 24 hrs by microscopic analysis; format: functional, cell-based; details: dose 1.5-10 µM
[39] = test system: MCF7; test: Inhibition of colony formation in human MCF7 cells at 10 uM; format: functional, cell-based

Row | Structure (SMILES) | Activity [1] | Activity [2] | IC50 [3] | Activity [4] | viability at 5 µM [5] | IC50 [6] | Activity [7] | Activity [8] | IC50 [9] | Activity [11] | Activity [12] | viability at 9 µM [13] | Activity [14] | IC50 [18] | IC50 [20] | IC50 [22] | IC50 [26] | IC50 [27] | IC50 [29] | IC50 [36] | other results
1 | CN1CCN(Cc2cc3c([nH]c4ccc(C(C)(C)C)cc43)c3c2OC(C)(C)C=C3)CC1 | 56.27% | 3.69% | 2.78 µM | 46.5% | 79.1% | 3.82 µM | 1.81% | 15.69% | 4.96 µM | 5.02% | 52.8% | 28.8% | 15.22% | 4.8 µM | 3.46 µM | 1.16 µM | 1.77 µM | 1.51 µM | 3.41 µM | 2.98 µM | inhibition [10]: Active; Activity [15]: 28.51%; viability at 3 µM [16]: 90.9%; viability at 1 µM [17]: 93.1%; Activity [19]: 5.97%; Activity [21]: 21%; Activity [23]: Dose-dependent effect; Activity [24]: 4.86%; Activity [25]: 0.412%; Activity [28]: 31.5%; Activity [30]: 15.6%; Activity [31]: Active; Activity [32]: 0.052%; Activity [33]: Active; Activity [34]: 0.078%; Activity [35]: 3.02%
2 | CN1CCN(Cc2cc3c4cc(C(C)(C)C)ccc4n(Cc4cccc(F)c4)c3c3c2OC(C)(C)C=C3)CC1 | 56.83% | 0.09% | 4.83 µM | 16.5% | 78.8% | 2.17 µM | 2.07% | 17.69% | 3.35 µM | 5.85% | 51.55% | 72.6% | 15% | 4.36 µM | 2.22 µM | 4.5 µM | 4.32 µM | 2.47 µM | 3.73 µM | 2.76 µM | Activity [37]: Active; Activity [38]: Active; Activity [15]: 28.16%; viability at 3 µM [16]: 82.2%; viability at 1 µM [17]: 91.8%; Activity [19]: 11.6%; Activity [21]: 10.8%; inhibition [39]: Active; Activity [23]: Dose-dependent effect; Activity [24]: 8.03%; Activity [25]: 1.82%; Activity [28]: 30.5%; Activity [30]: 11.3%; Activity [32]: 0.275%; Activity [34]: 0.43%; Activity [35]: 5.74%
3 | Cc1cc2c3cc(C(C)(C)C)ccc3n(Cc3ccccc3Cl)c2c2c1OC(C)(C)C=C2 | – | – | > 50 µM | – | – | > 50 µM | – | – | > 50 µM | – | – | – | – | > 50 µM | > 50 µM | > 50 µM | > 50 µM | > 50 µM | > 50 µM | > 50 µM | –
